Laboratory results from patent US4575560A, “Insecticidal diaminoguanidine hydrazone compounds” (American Cyanamid Company, priority 1985, dated 1986).
In brackets after ≈: the same amount, converted by molar mass. Structures can show the parent of a compound that is named as a salt.

Experiments:
Southern Armyworm = assay: Southern armyworm test, third-instar larvae on treated Sieva lima bean leaves; format: in vivo, Spodoptera eridania (Cramer); conditions: for Mortality Rating Southern Armyworm: third-instar larvae; for LC50: Spodoptera eridania, read-out: LC50 Southern Armyworm
How it was run: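 Sieva lima bean plants, primary leaves expanded to 1.91 cm, were dipped with agitation for three seconds in test material dissolved in 65% acetone, with further dilutions in acetone, then air-dried in a hood. A treated leaf was placed in a 9 cm petri dish on moist filter paper with 10 third-instar Spodoptera eridania larvae about 1 cm long. Dishes were covered and kept at 80° F. and 50% r.h. Mortality and feeding were assessed after two days.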

[1] = system: Tobacco Budworm 1st Instar; assay: Tobacco budworm initial test, treated eggs / newly hatched (1st instar) larvae on treated cotton leaves; format: in vivo, Heliothis virescens (Fabricus)
Method: Test formulations and procedures used for evaluation are as follows:
A. 100 mg of the test material is weighed, placed in a funnel over a 113 g narrow-mouth bottle, rinsed into the bottle with a 35 mL scoop of acetone, followed by a 35 mL scoop of water and another 35 mL scoop of acetone to yield 1000 ppm in 65% acetone. If the material is not soluble, it is broken up with a glass rod and used as a suspension.
B. This stock solution ("A") is used to make 300 ppm solutions or suspensions by pipetting 30 mL of "A" into a bottle containing 70 mL of 50% acetone to yield 300 ppm. Further dilutions in 50% acetone are made as required.
C. Tests requiring 10 ppm acetone solutions: 1 mL of "A" is pipetted into 99 mL of acetone to yield 10 ppm. Additional dilutions are made using 50% acetone as required.
Tobacco Budworm--Heliothis virescens (Fabricus)
A cotton plant with two true leaves expanded is dipped for three seconds with agitation in 300 ppm solution. A 1.27 to 1.91 cm square of cheesecloth with about 50 to 100 budworm eggs 0-24 hours old is also dipped in the test solution and placed on a leaf of the cotton plant, all being placed in the hood to dry. The leaf with the treated budworm eggs is removed from the plant and placed in a 226 g Dixie cup with a wet 5 cm piece of dental wick and covered with a lid. The other leaf is placed in a similar cup with a wick and a piece of cheesecloth infested with 50-100 newly hatched larvae is added before covering the cup with a lid. After three days at 80° F., 50% relative humidity, observations of egg hatch are made, as well as kill of newly hatched larvae, any inhibition of feeding, or interference of any sort with normal development.

[2] = system: Tobacco Budworm 3rd Instar; assay: Tobacco budworm secondary test, third-instar larvae on treated cotton cotyledons; format: in vivo, Heliothis virescens (Fabricus)
Method: Three cotton plants with just expanded cotyledons are dipped in 1000 ppm solution and placed in the hood to dry. When dry, each cotyledon is cut in half, and 10 are each placed in a 28 g plastic medicine cup containing a 1.25 cm dental wick saturated with water, and one third-instar budworm larva is added. The cup is capped and held for three days at 80° F., 50% relative humidity, after which mortality counts are made.

SMILES	Mortality Rating Southern Armyworm (Southern Armyworm; 10 ppm)	Mortality Rating Southern Armyworm (Southern Armyworm; 100 ppm)	Mortality Rating Southern Armyworm (Southern Armyworm; 1000 ppm)	Mortality Rating Tobacco Budworm 1st Instar ([1]; 300 ppm)	Mortality Rating Tobacco Budworm 3rd Instar ([2]; 1000 ppm)	reduced feeding (R) Southern Armyworm (Southern Armyworm; 100 ppm)	Mortality Rating Tobacco Budworm 1st Instar ([1]; 100 ppm)	Mortality Rating Tobacco Budworm 3rd Instar ([2]; 100 ppm)	LC50 (Southern Armyworm) [µg/mL]	LC50 Southern Armyworm (Southern Armyworm; southern armyworm, in vivo) [ppm]	reduced feeding (R) Tobacco Budworm 3rd Instar ([2]; 100 ppm)	reduced feeding (R) Tobacco Budworm 3rd Instar ([2]; 1000 ppm)	Mortality Rating Tobacco Budworm 1st Instar ([1]; 10 ppm)	reduced feeding (R) Tobacco Budworm 1st Instar ([1]; 100 ppm)	Mortality Rating Tobacco Budworm 3rd Instar ([2]; 10 ppm)
N=C(NN=Cc1ccc(OC(F)F)cc1)NN=Cc1ccc(OC(F)F)cc1 [HCF2 O / S]	0 (No effect)	8 (86-99%)	9 (100%)	0 (No effect)	0 (No effect)										
N=C(NN=Cc1ccc(C(F)(F)F)cc1)N(N=Cc1ccc(C(F)(F)F)cc1)C(=O)OCc1ccccc1 [CF3 / CF3 / drawing 59]		0 (No effect)	9 (100%)	0 (No effect)	0 (No effect)										
N=C(NN=Cc1ccc(Cl)cc1)NN=Cc1ccc(Br)cc1 [Cl / Br / HCl]		2 (26-35%)	9 (100%)	0 (No effect)	0 (No effect)	R									
N=C(NN=Cc1ccc(C(F)(F)F)cc1)NN=Cc1ccc(C(F)(F)F)cc1 [CF3 / B, 1,3-bis{[p-(trifluoromethyl)benzylidene]amino}guanidine]	0 (No effect)	9 (100%)	9 (100%)	6 (66-75%)	8 (86-99%)		0 (No effect)	0 (No effect)							
CCN(CC)C(=O)N(N=Cc1ccc(C(F)(F)F)cc1)C(=N)NN=Cc1ccc(C(F)(F)F)cc1 [CF3 / CF3 / C2 H5 / C2 H5]	7 (76-85%)	9 (100%)	9 (100%)	0 (No effect)	4 (46-55%)				8 (≈ 16 µM)	12					
CN(C)C(=O)N(N=Cc1ccc(Cl)cc1)C(=N)NN=Cc1ccc(Cl)cc1 [Cl / Cl / CH3 / CH3]		0 (No effect)	9 (100%)	0 (No effect)	0 (No effect)			0 (No effect)							
N=C(NN=Cc1ccc(Cl)cc1)NN=Cc1ccc(Cl)cc1 [Cl / Base]	0 (No effect)	0 (No effect)	9 (100%)	5 (56-65%)	0 (No effect)										
N=C(NN=Cc1ccc(Br)cc1)NN=Cc1ccc(Br)cc1 [Br / HNO3]		5 (56-65%)	9 (100%)	0 (No effect)											
N=C(NN=Cc1ccc(OC(F)F)cc1)NN=Cc1ccc(OC(F)F)cc1 [HCF2 O / B]	0 (No effect)	6 (66-75%)	9 (100%)	0 (No effect)	0 (No effect)										
CCNC(=O)N(N=Cc1ccc(C(F)(F)F)cc1)C(=N)NN=Cc1ccc(C(F)(F)F)cc1 [CF3 / CF3 / C2 H5 / H]		0 (No effect)	9 (100%)	0 (No effect)	0 (No effect)										
CC(C)OC(=O)N(N=Cc1ccc(C(F)(F)F)cc1)C(=N)NN=Cc1ccc(C(F)(F)F)cc1 [CF3 / CF3 / -i-C3 H7]	9 (100%)	9 (100%)	9 (100%)	0 (No effect)	3 (36-45%)			0 (No effect)			R	R			
CNC(=O)N(N=Cc1ccc(OC(F)F)cc1)C(=N)NN=Cc1ccc(OC(F)F)cc1 [HCF2 O / HCF2 O / CH3 / H]		0 (No effect)	9 (100%)	7 (76-85%)	0 (No effect)										
N=C(NN=Cc1ccc(C(F)(F)F)cc1)NN=Cc1ccc(C(F)(F)F)cc1 [CF3 / HCl]	0 (No effect)	9 (100%)	9 (100%)	9 (100%)	5 (56-65%)		0 (No effect)	0 (No effect)			R		0 (No effect)	R	
CN(C)C(=O)N(N=Cc1ccc(OC(F)F)cc1)C(=N)NN=Cc1ccc(OC(F)F)cc1 [HCF2 O / HCF2 O / CH3 / CH3]	0 (No effect)	9 (100%)	9 (100%)	0 (No effect)	0 (No effect)				75 (≈ 160 µM)						
N=C(NN=Cc1ccc(OC(F)(F)F)cc1)NN=Cc1ccc(OC(F)(F)F)cc1 [CF3 O / HCl]	0 (No effect)	9 (100%)	9 (100%)	9 (100%)											
CN(C)C(=O)N(N=Cc1ccc(Br)cc1)C(=N)NN=Cc1ccc(Br)cc1 [Br / Br / CH3 / CH3]	0 (No effect)	9 (100%)	9 (100%)	0 (No effect)	2 (26-35%)			0 (No effect)							
CC(C)COC(=O)N(N=Cc1ccc(C(F)(F)F)cc1)C(=N)NN=Cc1ccc(C(F)(F)F)cc1 [CF3 / CF3 / -i-C4 H9]		0 (No effect)	9 (100%)	0 (No effect)	0 (No effect)										
CNC(=O)N(N=Cc1ccc(C(F)(F)F)cc1)C(=N)NN=Cc1ccc(C(F)(F)F)cc1 [CF3 / CF3 / CH3 / H]	1 (11-25%)	9 (100%)	9 (100%)	8 (86-99%)	6 (66-75%)		0 (No effect)		5 (≈ 10.9 µM)						
N=C(NN=Cc1ccc(OC(F)(F)C(F)F)cc1)NN=Cc1ccc(OC(F)(F)C(F)F)cc1 [HCF2 CF2 O / B, 1,3-bis{[p-(tetrafluoroethoxy)benzylidene]-amino}guanidine]	0 (No effect)	9 (100%)	9 (100%)	9 (100%)	9 (100%)		0 (No effect)	0 (No effect)						R	
N=C(NN=Cc1ccc(Br)cc1)NN=Cc1ccc(C(F)(F)F)cc1 [CF3 / Br / HCl]			9 (100%)	9 (100%)	0 (No effect)		0 (No effect)	0 (No effect)			R	R	0 (No effect)	R	0 (No effect)
N=C(NN=Cc1ccc(F)cc1)NN=Cc1ccc(F)cc1 [F / B]		2 (26-35%)	9 (100%)	0 (No effect)	3 (36-45%)		0 (No effect)								
N=C(NN=Cc1ccc2c(c1)OC(F)C(F)(F)O2)NN=Cc1ccc2c(c1)OC(F)C(F)(F)O2 (centres unmarked) [drawing 47 / B]	0 (No effect)		9 (100%)		0 (No effect)			0 (No effect)			R	R			
